# In patent US20240043476A1, “ANTI-TUMOR PEPTIDE AND USE THEREOF” (National University Corporation Hokkaido University, priority 2020, published 2024):
# Legend:
# [1] = test system: human prostate cancer cell line DU145; assay: Inhibition of proliferation of prostate cancer cell line DU145 (CellTiter Glo luminescence); assay type: cell-based; conditions: DU145 cells; for cell proliferation (without synthetic peptide set to 100): final concentration 30 μM; for inhibitory activity against cell proliferation: cell-penetrating peptide substituted or removed, same way as Example 2
# Procedure: (§1) Human prostate cancer cell line DU145 was cultured in DMEM containing 10% fetal cattle serum (FCS) at 37° C. and 5% CO2 with passaging. DU145 cells were seeded into 96-well plates at 5000 cells/well, then cultured at 37° C. for 24 hours, and then further cultured for 48 hours in 10% FCS-containing DMEM that contains each of the synthesized peptides of Example 1 at a final concentration of 1 μM, 10 μM, 50 μM or 100 μM. The medium was discarded after culturing, and then 25 μL of 50-fold diluted solution of CellTiter Glo Reagent (Promega) (diluted with PBS (−) containing 0.1% NP-40) was added to each well. Next, the resulting solution was shaken at room temperature for 10 minutes, and then luminescence level was measured with a plate reader (Infinite M200, Tecan). A relative luminescence level of each synthetic peptide was calculated when the average luminescence level measured for control cells cultured in 10% FCS-containing DMEM without any synthetic peptide was set to 100, and was used as an index of cell proliferation.
# The peptides listed in Table 2 below were designed and evaluated for their inhibitory activities against proliferation of DU145 cells in the same way as in Example 2. Each of the peptides 4T-2-D-1-4, 4H-2-D-1-4 and 4F-2-D-1-4 is a peptide in which the octaarginine sequence of the peptide 42-D-1-4 is substituted with an amino acid sequence of another cell-penetrating peptide, and each has, from the N-terminal side, an amino acid sequence of TAT peptide, HTLV-II-Rex or FHV coat (35-49), a linker sequence of one Gly residue, and an amino acid sequence corresponding to G45-Y51 of the PH domain. The peptides #R8(−)-2-D-1, #R8(−)-2-D-1-4 and #R8(−)-6-A-2 are peptides with the octaarginine sequence and the linker sequence removed from the peptides #2-D-1, #2-D-1-4 and #6-A-2, respectively.
# The peptides listed in Table 3 below were designed and evaluated for their inhibitory activities against proliferation of DU145 cells, in the same way as in Example 2 except that the final concentrations of the synthetic peptides were set to 3 μM, 10 μM and 30 μM. The peptides #2-D-1-4-1A to #2-D-1-4-7A are peptides in which GLTIYFY (SEQ ID NO: 36) of peptide #2-D-1-4 was substituted with Ala one by one from the N-terminal side.
# Cyclin D1 (Ccnd1) = assay: Real-time PCR of Cyclin D1 gene expression in DU145 cells; assay type: cell-based, human; conditions: peptide 10 μM, 15 and 30 minutes
# Procedure: (§2) DU145 cells, cultured in DMEM containing 10% fetal cattle serum (FCS) at 37° C. and 5% CO2 with passage, were seeded into 6-well plates at 5.0×10^5 cells/well, and then cultured at 37° C. for 24 hours. The cells were incubated for 2 hours in serum-free DMEM. Then, the synthetic peptide #2-D-1-4 (final concentration 10 μM) was added, and cells were collected 15 minutes later and 30 minutes later. Cells without addition of any synthetic peptide were prepared in the same way.
# (§3) Total RNA was extracted from the cells with use of TRIzol (Thermo Fisher Scientific). cDNA was synthesized from the total RNA with use of ReverTra Ace (TOYOBO) and random hexamer primers. Real-time PCR was carried out with the following primer sets and MX3000P (Agilent Technologies, Inc.) to measure the relative gene expression levels of Cyclin D1 (Ccnd1), which is associated with cell proliferation, and Survivin, which is associated with cancer cell survival.
# DU145 cells = assay: Antitumor effect in DU145 tumor-bearing model; assay type: in vivo, BALB/c nude mice; conditions: 2 mg/body intratumoral
# Procedure: DU145 cells (5.0×10^6 cells) were injected subcutaneously into right flank of BALB/c nude mice (female, 4 weeks old). On days 14, 17 and 20 after implantation, solvent (5% DMSO, control) or the synthetic peptide #2-D-1-4 (2 mg/body) was intratumorally administered. Tumor diameters were measured with calipers every 3 days starting on day 14 after implantation, and tumor volumes (longer diameter×shorter diameter×shorter diameter/2) were calculated. The mice were euthanized on day 32 after implantation, then tumor mass were collected and their weights were measured.
# Survivin = assay: Real-time PCR of Survivin gene expression in DU145 cells; assay type: cell-based, human; conditions: peptide 10 μM, 15 and 30 minutes
# Procedure: as §2, §3
# [2] = test system: human pancreatic cancer cell line BxPC3; assay: Inhibition of proliferation of BxPC3 cells; assay type: cell-based; conditions: BxPC3, same manner as Example 2
# [3] = test system: human cervical cancer cell line HeLa; assay: Inhibition of proliferation of HeLa cells; assay type: cell-based; conditions: same manner as Example 2
# [4] = test system: human glioma cell line U251; assay: Inhibition of proliferation of U251 cells; assay type: cell-based; conditions: U251, same manner as Example 2
# [5] = test system: human melanoma cell line A375; assay: Inhibition of proliferation of A375 cells; assay type: cell-based; conditions: A375, same manner as Example 2
# Procedure: as §1, with “proliferation. […]” for “proliferation.”
# [6] = target: T1, EGFR/STAP-2 interaction (EGFR-HA and GST-STAP-2) (Homo sapiens, UniProt P00533, C187G/DEL142-186); assay: GST pull-down and immunoblot of EGFR/STAP-2 interaction; assay type: binding; conditions: HEK293T lysate, peptide 1 μM or 50 μM, 4° C. 1 hour
# T1 construct: expressed in transfected cells; host or cells: HEK293T
# [7] = test system: human breast cancer cell line T47D; assay: Inhibition of proliferation of T47D cells; assay type: cell-based; conditions: cultured 96 hours with peptide
# [8] = test system: human liver cancer cell line Hep3B; assay: Inhibition of proliferation of Hep3B cells; assay type: cell-based; conditions: same manner as Example 2
# [9] = test system: human lung cancer cell line A549; assay: Inhibition of proliferation of A549 cells; assay type: cell-based; conditions: A549, same manner as Example 2
substance,measurement,setting,value
RRRRRRRRGG GATIYFY (RRRRRRRRGGGATIYFY) [#2-D-1-4-2A],cell proliferation (without synthetic peptide set to 100),[1],approximately 50%
RRRRRRRRGG GLAIYFY (RRRRRRRRGGGLAIYFY) [#2-D-1-4-3A],cell proliferation (without synthetic peptide set to 100),[1],approximately 50%
GRKKRRQRRRPPQGGLTIYFY [#T-2-D-1-4],inhibitory activity against cell proliferation,[1],the same extent of inhibitory activity against cell proliferation as that of the peptide #2-D-1-4
QGLTIYFYN [#R8(−)-2-D-1],inhibitory activity against cell proliferation,[1],none
GLTIYFY [#R8(−)-2-D-1-4],inhibitory activity against cell proliferation,[1],none
VVELRVP [#R8(−)-6-A-2],inhibitory activity against cell proliferation,[1],none
TRRQRTRRARRNRGGLTIYFY [#H-2-D-1-4],inhibitory activity against cell proliferation,[1],the same extent of inhibitory activity against cell proliferation as that of the peptide #2-D-1-4
RRRRNRTRRNRRRVRGGLTIYFY [#F-2-D-1-4],inhibitory activity against cell proliferation,[1],the same extent of inhibitory activity against cell proliferation as that of the peptide #2-D-1-4
RRRRRRRRGG GLTIYAY (RRRRRRRRGGGLTIYAY) [#2-D-1-4-6A],cell proliferation (without synthetic peptide set to 100),[1],approximately 50%
RRRRRRRRGG GLTIYFY (RRRRRRRRGGGLTIYFY) [#2-D-1-4],gene expression level of Ccnd1,Cyclin D1 (Ccnd1),reduced
same,final weight of the tumor mass compared to the control,"DU145 cells; days 14, 17 and 20, day 32 after implantation",significant reduction
same,tumor volume compared to the control,"DU145 cells; days 14, 17 and 20 after implantation",inhibition of increase in tumor volume
same,gene expression level of Survivin,Survivin,reduced
same,activity to inhibit proliferation,[2],exhibited the activity to inhibit proliferation
same,activity to inhibit proliferation,[3],exhibited the activity to inhibit proliferation
same,activity to inhibit proliferation,[4],exhibited the activity to inhibit proliferation
same,activity to inhibit proliferation,[5],exhibited the activity to inhibit proliferation
same,complex between EGFR-HA and GST-STAP-2 in pull-down fraction,[6],not detected
same,activity to inhibit proliferation,[7],exhibited the activity to inhibit proliferation
same,activity to inhibit proliferation,[8],exhibited the activity to inhibit proliferation
same,activity to inhibit proliferation,[9],exhibited the activity to inhibit proliferation
